From US20260174778A1, “SULFONAMIDE COMPOUND, AND PREPARATION METHOD THEREFOR AND USE THEREOF” (SHANGHAI HENLIUS BIOTECH, INC., priority 2023, published 2026)
Like-named read-outs stand apart in the source and are kept apart here.

Columns and labels:
KAT6A = molecular target: T1, KAT6A (Homo sapiens, UniProt Q92794); assay: Inhibition of human KAT enzymes, radioisotope method: KAT6A; format: biochemical; details: KAT6A (488-778)
T1 construct: purchased ACTIVE MOTIF 81223
Source text: (§1) Test Example 2: Selective Inhibitory Effects of Test Compounds on Human KAT6 Enzymes (Radioisotope Method)
(§2) • 1. KAT6A (ACTIVE MOTIF, Cat. No. 81223) • 2. KAT5 (BPS, Cat. No. 79422) • 3. KAT7 (ACTIVE MOTIF, Cat. No. 31889) • 4. KAT6B (ACTIVE MOTIF, Cat. No. 81224) • 5. Acetyl coenzyme A, [Acetyl-^3H, 250 μCi (9.25 MBq](PEIRKIN4 ELMER, Cat. No. NET290250UC) • 6. Acetyl coenzyme A (CAYMVAN, Cat. No. 16160) • 7. 384-well Flashplate (Perkin Elmer, Cat. No. SMP410A001PK) • 8. Garcinol (MCE, Cat. No. HY-107569) • 9. Automatic microplate pipetting system (Precision, PRC384U, BioTek) • 10. Ultrasonic nanoliter liquid handling system (Echo 650 Liquid Handler, Echo 650, Labcyte) • 11. Centrifuge (Avanti J-15R, Beckman Coulter) • 12. Liquid scintillation counter (Microplate Counter, Microbeta2, Perkin Elmer)
(§3) • 1. For KAT6A and KAT7, a 1× assay buffer was prepared as follows: 10 mM Tris-HCl pH 8.0, 0.01% Tween-20, and 1 mM DTT; for KAT6B and KAT5, a 1× assay buffer was prepared as follows: 50 mM Tris-HCl pH 8.0, 0.05% Tween-20, and 1 mM DTT. • 2. Compound preparation: For KAT6A, KAT6B, and KAT7, the final concentration of the compounds started at 1 μM, followed by a 5-fold serial dilution across a total of 7 concentration gradients; for KAT5, the final concentration of the compounds started at 10 μM, followed by a 5-fold serial dilution across a total of 7 concentration gradients. • 3. Substrate reaction solution preparation: The mixed substrates of H4 peptide and [3H]acetyl coenzyme A at final concentrations were prepared using the respective 1× assay buffers, as shown in Table 4.
(§4) • 1. The enzyme solution was transferred to 384-well reaction plates at 10 μL/well. For each negative control well, 10 μL of the 1× assay buffer was transferred. The plates were then centrifuged at 1000 RPM for 1 min and incubated at room temperature for 15 min. • 2. The substrate reaction solution was added at 10 μL/well, and the plates were centrifuged at 1000 RPM for 1 min to start the reaction. • 3. The samples for KAT6A, KAT6B, KAT7, KAT8, and KAT5 were then incubated at room temperature for 60 min, 120 min, 45 min, 60 min, and 120 min, respectively. • 4. Stop solution preparation: A stop solution was prepared by diluting 50 µM cold Ac-CoA in 1× buffer. • 5. The stop solution was added at 10 μL/well, and the plates were centrifuged at […] for 1 min to stop the reaction. • 6. The mixtures in the reaction plates were transferred at 25 μL/well to new plates (Streptavidin FlashPlate HTS PLUS, High Capacity, 384-well). • 7. The plates were incubated at room temperature for at least 60 min and then • 8. read using MicroBeta2.
(§5) Raw data were obtained in EXCEL, and the inhibition rates were calculated:
(§6) [formula] [formula] • Max signal: reaction signal from enzyme and substrate; • Sample signal: signal from sample; • Min signal: signal from substrate only (negative control).
(§7) The inhibition rate data were imported into XLFit Excel, and IC50 values were obtained using formula (2):
(§8) [formula] [formula] • Top: value of the top plateau of the fitted regression curve; • Bottom: value of the bottom plateau of the fitted regression curve; • HillSlope: slope of the fitted regression curve.
(§9) The IC50 value was substituted into formula (3) to obtain the enzymatic activity inhibition constant Ki:
(§10) [formula] • [S]: substrate concentration; Km: Michaelis constant.

KAT6B = molecular target: T2, KAT6B (Homo sapiens, UniProt Q8WYB5); assay: Inhibition of human KAT enzymes, radioisotope method: KAT6B; format: biochemical; details: KAT6B (718-1008)
T2 construct: purchased ACTIVE MOTIF 81224
Source text: as §1, §2, §3, §4, §5, §6, §7, §8, §9, §10

KAT5 = molecular target: T3, KAT5 (Homo sapiens, UniProt Q92993); assay: Inhibition of human KAT enzymes, radioisotope method: KAT5; format: biochemical; details: for Ki: KAT5 (full-length), radioisotope method; for KAT5/ KAT6A / KAT5/ KAT6B: selectivity, ratio of Ki
T3 construct: purchased BPS 79422
Source text: as §1, §2, §3, §4, §5, §6, §7, §8, §9, §10

KAT7 = molecular target: T4, KAT7 (Homo sapiens, UniProt O95251); assay: Inhibition of human KAT enzymes, radioisotope method: KAT7; format: biochemical; details: for Ki: KAT7 (full-length), radioisotope method; for KAT7/ KAT6A / KAT7/ KAT6B: selectivity, ratio of Ki
T4 construct: purchased ACTIVE MOTIF 31889
Source text: as §1, §2, §3, §4, §5, §6, §7, §8, §9, §10

[1] = Pharmacokinetics in SD (Sprague Dawley) rats; format: in vivo; details: rat, plasma, female SD rats; for clearance: read-out: CL (clearance rate); for half-life: read-out: T1/2 (half-life) (converted); for Vd: read-out: Vdss (apparent volume of distribution); for bioavailability: read-out: F (bioavailability)
Protocol: Test Example 3: Determination of Pharmacokinetic Data of Compounds in SD (Sprague Dawley) Rats
The pharmacokinetic characteristics of some of the compounds of the present disclosure were evaluated by a pharmacokinetic experiment in SD rats.
Female SD rats aged 6-8 weeks from Shanghai Jihui Laboratory Animal Care Co., Ltd. were selected. The test animals were fasted overnight before administration, and feeding was resumed 4 h after administration. The compounds were dissolved in 5% DMSO+5% Tween 80+90% normal saline. For a single intravenous administration, the administration dose was 1 mg/kg, and the administration volume was 2 mL/kg. For a single intragastric administration, the administration dose was 2 mg/kg, and the administration volume was 10 mL/kg. Blood was collected at 0.083 h (for intravenous administration only), 0.25 h, 0.5 h, 1 h, 2 h, 4 h, 8 h, and 24 h after administration. At each indicated time point, about 150 μL of blood sample was collected from each rat via the vein and placed into an EDTA-K2 tube. Each sample was centrifuged (2000 g, 4° C., 5 min) within 15 min after sample collection to obtain plasma, which was then stored at −70° C. until analysis. The concentration of the corresponding test compound in the SD rat plasma was determined using UPLC-MS/MS.

T4 sequence (O95251 whole entry): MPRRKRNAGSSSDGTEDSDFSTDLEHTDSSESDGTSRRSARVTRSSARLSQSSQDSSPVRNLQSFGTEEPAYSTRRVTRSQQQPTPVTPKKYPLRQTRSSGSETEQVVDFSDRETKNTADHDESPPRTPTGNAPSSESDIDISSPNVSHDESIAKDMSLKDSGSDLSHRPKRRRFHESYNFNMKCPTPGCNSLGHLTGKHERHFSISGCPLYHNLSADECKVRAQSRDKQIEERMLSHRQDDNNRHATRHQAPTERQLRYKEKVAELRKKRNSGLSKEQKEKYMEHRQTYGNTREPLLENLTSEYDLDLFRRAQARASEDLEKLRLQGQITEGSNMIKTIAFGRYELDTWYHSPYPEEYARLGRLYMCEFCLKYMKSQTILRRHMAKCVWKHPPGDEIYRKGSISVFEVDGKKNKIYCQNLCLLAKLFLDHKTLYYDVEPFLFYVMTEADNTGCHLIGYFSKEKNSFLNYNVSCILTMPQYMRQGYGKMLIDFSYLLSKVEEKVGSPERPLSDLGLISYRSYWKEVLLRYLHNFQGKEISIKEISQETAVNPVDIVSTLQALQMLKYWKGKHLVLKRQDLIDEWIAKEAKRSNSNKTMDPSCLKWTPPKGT
T1 sequence (Q92794 whole entry): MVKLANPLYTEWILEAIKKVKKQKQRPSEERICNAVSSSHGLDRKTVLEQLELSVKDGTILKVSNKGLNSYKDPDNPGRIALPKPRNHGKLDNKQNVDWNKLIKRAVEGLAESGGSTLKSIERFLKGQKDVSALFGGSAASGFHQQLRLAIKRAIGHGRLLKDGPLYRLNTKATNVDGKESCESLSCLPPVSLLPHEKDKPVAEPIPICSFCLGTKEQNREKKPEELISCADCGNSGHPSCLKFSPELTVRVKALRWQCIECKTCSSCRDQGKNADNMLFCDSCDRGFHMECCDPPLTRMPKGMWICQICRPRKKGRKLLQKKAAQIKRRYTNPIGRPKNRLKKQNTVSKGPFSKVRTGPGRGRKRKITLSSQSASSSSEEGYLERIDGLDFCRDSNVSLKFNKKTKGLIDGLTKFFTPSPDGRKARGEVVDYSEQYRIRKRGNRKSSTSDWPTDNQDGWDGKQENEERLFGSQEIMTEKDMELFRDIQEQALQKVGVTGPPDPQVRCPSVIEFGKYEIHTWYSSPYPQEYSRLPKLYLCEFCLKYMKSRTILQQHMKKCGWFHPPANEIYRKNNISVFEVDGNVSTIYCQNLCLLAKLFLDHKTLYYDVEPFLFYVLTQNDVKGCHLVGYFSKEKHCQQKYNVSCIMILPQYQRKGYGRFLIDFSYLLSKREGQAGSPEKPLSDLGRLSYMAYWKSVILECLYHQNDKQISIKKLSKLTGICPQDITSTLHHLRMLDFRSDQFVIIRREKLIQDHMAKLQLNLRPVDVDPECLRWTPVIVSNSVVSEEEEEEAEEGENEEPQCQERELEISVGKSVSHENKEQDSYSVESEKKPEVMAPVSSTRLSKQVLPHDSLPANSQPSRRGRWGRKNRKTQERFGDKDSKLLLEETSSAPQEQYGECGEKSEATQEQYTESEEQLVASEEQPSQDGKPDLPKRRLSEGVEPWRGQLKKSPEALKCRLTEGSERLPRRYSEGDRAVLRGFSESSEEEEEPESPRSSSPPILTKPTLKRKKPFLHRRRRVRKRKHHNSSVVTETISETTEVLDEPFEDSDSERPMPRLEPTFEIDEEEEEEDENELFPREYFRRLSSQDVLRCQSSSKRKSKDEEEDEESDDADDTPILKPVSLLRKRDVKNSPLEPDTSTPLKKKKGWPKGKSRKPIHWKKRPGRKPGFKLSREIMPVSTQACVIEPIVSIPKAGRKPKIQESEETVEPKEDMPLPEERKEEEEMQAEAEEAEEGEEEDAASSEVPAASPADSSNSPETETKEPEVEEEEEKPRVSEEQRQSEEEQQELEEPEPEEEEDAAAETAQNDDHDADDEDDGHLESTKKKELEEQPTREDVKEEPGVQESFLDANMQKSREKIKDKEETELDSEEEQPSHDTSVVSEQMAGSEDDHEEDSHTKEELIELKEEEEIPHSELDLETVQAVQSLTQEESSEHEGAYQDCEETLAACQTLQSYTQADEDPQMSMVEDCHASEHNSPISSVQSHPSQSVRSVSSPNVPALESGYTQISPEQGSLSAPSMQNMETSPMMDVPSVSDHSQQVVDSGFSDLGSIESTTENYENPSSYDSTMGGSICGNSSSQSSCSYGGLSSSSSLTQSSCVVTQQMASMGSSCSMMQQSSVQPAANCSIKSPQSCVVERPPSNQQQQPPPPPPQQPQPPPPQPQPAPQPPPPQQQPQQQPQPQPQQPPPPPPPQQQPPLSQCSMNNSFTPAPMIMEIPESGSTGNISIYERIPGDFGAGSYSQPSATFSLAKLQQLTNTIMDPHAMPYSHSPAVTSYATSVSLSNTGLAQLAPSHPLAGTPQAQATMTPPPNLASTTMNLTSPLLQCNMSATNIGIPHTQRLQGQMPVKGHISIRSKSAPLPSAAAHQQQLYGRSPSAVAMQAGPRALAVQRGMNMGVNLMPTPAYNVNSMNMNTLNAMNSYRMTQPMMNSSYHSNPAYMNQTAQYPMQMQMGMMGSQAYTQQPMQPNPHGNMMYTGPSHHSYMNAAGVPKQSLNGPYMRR
T3 sequence (Q92993 whole entry): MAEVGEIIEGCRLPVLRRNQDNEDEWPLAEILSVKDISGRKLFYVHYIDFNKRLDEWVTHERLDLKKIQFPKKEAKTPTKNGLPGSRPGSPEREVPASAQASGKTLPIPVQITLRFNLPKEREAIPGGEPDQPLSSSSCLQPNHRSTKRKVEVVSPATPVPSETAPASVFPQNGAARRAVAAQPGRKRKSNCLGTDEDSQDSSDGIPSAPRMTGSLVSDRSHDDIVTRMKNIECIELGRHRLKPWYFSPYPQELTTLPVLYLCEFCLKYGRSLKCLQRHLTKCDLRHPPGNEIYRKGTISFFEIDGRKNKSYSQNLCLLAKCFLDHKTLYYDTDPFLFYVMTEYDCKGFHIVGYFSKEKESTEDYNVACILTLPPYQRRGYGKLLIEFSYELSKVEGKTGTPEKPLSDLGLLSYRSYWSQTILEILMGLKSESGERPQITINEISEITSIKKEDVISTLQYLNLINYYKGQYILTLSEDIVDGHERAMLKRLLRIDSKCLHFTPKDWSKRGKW

| Compound | Ki (KAT6A) | Ki (KAT6B) | Ki (KAT5) | KAT5/ KAT6A (KAT5) | KAT5/ KAT6B (KAT5) | Ki (KAT7) | KAT7/ KAT6A (KAT7) | KAT7/ KAT6B (KAT7) | AUC(0-inf) ([1]; iv, i.v. 1 mg/kg) | clearance ([1]; iv, i.v. 1 mg/kg) | half-life ([1]; iv, i.v. 1 mg/kg) | Vd ([1]; iv, i.v. 1 mg/kg) | AUC(0-inf) ([1]; po, p.o. 2 mg/kg) | bioavailability ([1]; po, p.o. 2 mg/kg) | half-life ([1]; po, p.o. 2 mg/kg) |
| --- | --- | --- | --- | --- | --- | --- | --- | --- | --- | --- | --- | --- | --- | --- | --- |
| COc1ccc2c(c1S(=O)(=O)Nc1noc3cc(Cn4cccn4)c(F)c(OC)c13)OCC=C2 [Compound 101, N-(6-((1H-Pyrazol-1-yl)methyl)-5-fluoro-4-methoxybenzo[d]isoxazol-3-yl)-7-methoxy-2H-chromene-8-sulfonamide] | 0.21 nM | 0.65 nM | 79.6 nM | 379 | 122 | 7.39 nM | 35 | 11 | 48100 ng·h/mL | 0.35 mL/min/kg | 533 min | 0.237 L/kg | 89100 ng·h/mL | 92.5% | 553 min |
| COc1ccc2c(c1S(=O)(=O)Nc1noc3cc(Cn4cccn4)c(F)c(OC)c13)OCCN2C [Compound 109, N-(6-((1H-Pyrazol-1-yl)methyl)-5-fluoro-4-methoxybenzo[d]isoxazol-3-yl)-7-methoxy-4-methyl-3,4-dihydro-2H-benzo[b][1,4]oxazine-8-sulfonamide] | 0.47 nM | 0.9 nM | 286 nM | 609 | 318 | 54.7 nM | 116 | 61 | 90700 ng·h/mL | 0.185 mL/min/kg | 514 min | 0.119 L/kg | 187000 ng·h/mL | 96% | 584 min |
| COc1ccccc1S(=O)(=O)Nc1noc2cc(Cn3cccn3)cc(OC)c12 [PF-8144, reference compound] | 0.58 nM | 5.18 nM | 672 nM | 1159 | 130 | 85.7 nM | 148 | 17 | 28300 ng·h/mL | 0.597 mL/min/kg | 190 min | 0.143 L/kg | 55500 ng·h/mL | 98% | 227 min |

Second part, the compound after the results:

| Ki (KAT6A) | Ki (KAT6B) | Ki (KAT5) | KAT5/ KAT6A (KAT5) | KAT5/ KAT6B (KAT5) | Ki (KAT7) | KAT7/ KAT6A (KAT7) | KAT7/ KAT6B (KAT7) | AUC(0-inf) ([1]; iv, i.v. 1 mg/kg) | clearance ([1]; iv, i.v. 1 mg/kg) | half-life ([1]; iv, i.v. 1 mg/kg) | Vd ([1]; iv, i.v. 1 mg/kg) | AUC(0-inf) ([1]; po, p.o. 2 mg/kg) | bioavailability ([1]; po, p.o. 2 mg/kg) | half-life ([1]; po, p.o. 2 mg/kg) | Compound |
| --- | --- | --- | --- | --- | --- | --- | --- | --- | --- | --- | --- | --- | --- | --- | --- |
| 0.2 nM | 0.9 nM | 649 nM | 3243 | 721 | 40.6 nM | 203 | 45 | 22600 ng·h/mL | 0.761 mL/min/kg | 352 min | 0.295 L/kg | 42800 ng·h/mL | 94.7% | 404 min | COc1ccc2c(c1S(=O)(=O)Nc1noc3cc(Cn4cccn4)c(F)c(OC)c13)OCCO2 [Compound 28, N-(6-((1H-Pyrazol-1-yl)methyl)-5-fluoro-4-methoxybenzo[d]isoxazol-3-yl)-6-methoxy-2,3-dihydrobenzo[b][1,4]dioxine-5-sulfonamide] |
|  |  |  |  |  |  |  |  | 10200 ng·h/mL | 1.69 mL/min/kg | 227 min | 0.261 L/kg | 11300 ng·h/mL | 55% | 199 min | COc1ccc2c(c1S(=O)(=O)Nc1noc3cc(Cn4cccn4)c(F)c(OC)c13)OCCC2=O [Compound 42, N-(6-((1H-Pyrazol-1-yl)methyl)-5-fluoro-4-methoxybenzo[d]isoxazol-3-yl)-7-methoxy-4-oxochromane-8-sulfonamide] |
| 0.38 nM | 2.49 nM | 1850 nM | 4880 | 745 | 174 nM | 458 | 70 | 39200 ng·h/mL | 0.462 mL/min/kg | 1030 min | 0.608 L/kg | 97900 ng·h/mL | 144% | 780 min | COc1ccc2c(c1S(=O)(=O)Nc1noc3cc(Cn4cccn4)c(F)c(OC)c13)OCCCO2 [Compound 114, N-(6-((1H-Pyrazol-1-yl)methyl)-5-fluoro-4-methoxybenzo[d]isoxazol-3-yl)-7-methoxy-3,4-dihydro-2H-benzo[b][1,4]dioxepine-6-sulfonamide] |
| 0.63 nM | 6.48 nM | 5040 nM | 7998 | 778 | 493 nM | 782 | 76 | 47500 ng·h/mL | 0.363 mL/min/kg | 858 min | 0.408 L/kg | 109000 ng·h/mL | 105% | 954 min | COc1ccc2c(c1S(=O)(=O)Nc1noc3cc(Cn4cccn4)c(F)c(OC)c13)OCCCN2C [Compound 115, N-(6-((1H-Pyrazol-1-yl)methyl)-5-fluoro-4-methoxybenzo[d]isoxazol-3-yl)-8-methoxy-5-methyl-2,3,4,5-tetrahydrobenzo[b][1,4]oxazepine-9-sulfonamide] |
